Experimental data from patent US10118926B2, “Tricyclic quinoline and quinoxaline derivatives” (AbbVie Deutschland GmbH & Co. KG, priority 2012, dated 2018).
Counter-ions that a name gives are not always drawn.

Biological target: T1, 5-HT2C receptor (Homo sapiens, UniProt P28335)
T1 construct: β-galactosidase enzyme-complementation fragment (ProLink-type donor); host or cells: U2OS
Assay: Functional activity: beta-arrestin2 recruitment to the 5-HT2C receptor in U2OS_HTR2C_β-Arrestin cells (DiscoverX)
Assay type: cell-based
Conditions: for % efficacy / Emax: relative efficacy: response as percentage of response to 10 μM 5-HT or maximal effect induced by 5-HT (defined as 100%); for EC50: U2OS_HTR2C_β-Arrestin cells, 1.5 h incubation, chemiluminescent β-galactosidase complementation readout, read-out: Potency (EC50) in functional assay
Method: The functional activity of compounds of formula I was assayed by incubation with U2OS_HTR2C_β-Arrestin cells (DiscoverX, 93-0289C3) to induce beta-arrestin2 recruitment to the 5-HT2C receptor. The agonist-induced recruitment and proximity of the receptor and beta-arrestin2 leads to complementation and formation of active β-galactosidase. The enzyme complementation results in enzyme activity, which is measured following the termination of the agonist incubation using DiscoveRx's detection reagent, which contains a chemiluminescent substrate which produces a high intensity signal. Cells were plated and a medium-change to a 1% serum containing medium was performed 24 h later. The next day, test compounds were added and incubated for 1.5 h before addition of detection reagent.
The response produced was measured and compared with the response produced by 10 [mu]M 5-HT or the maximal effect induced by 5-HT (defined as 100%) to which it was expressed as a percentage response (relative efficacy). Dose response curves were constructed using Graphpad Prism (Graph Software Inc.) or using in house adapted software using a 4 parameter dose response model with variable slope (fit=(Bottom+(Top−Bottom)/(1+10^((Log EC50−x)*HillSlope))res=(y−fit)). Results are compiled in the table below.

T1 sequence (P28335 33-458): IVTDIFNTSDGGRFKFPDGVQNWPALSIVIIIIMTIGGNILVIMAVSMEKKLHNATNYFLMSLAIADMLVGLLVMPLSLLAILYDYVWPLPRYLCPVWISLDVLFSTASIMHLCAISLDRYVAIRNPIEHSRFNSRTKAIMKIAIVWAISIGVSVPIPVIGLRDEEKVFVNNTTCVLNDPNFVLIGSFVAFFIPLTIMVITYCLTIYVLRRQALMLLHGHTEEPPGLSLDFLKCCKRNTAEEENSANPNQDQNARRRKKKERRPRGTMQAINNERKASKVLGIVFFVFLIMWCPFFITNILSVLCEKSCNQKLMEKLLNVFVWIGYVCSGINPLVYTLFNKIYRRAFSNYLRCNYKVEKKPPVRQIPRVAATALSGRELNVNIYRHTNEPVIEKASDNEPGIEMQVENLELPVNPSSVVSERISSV
T1 sequence (P32121 whole entry partner, the tested form may be a part): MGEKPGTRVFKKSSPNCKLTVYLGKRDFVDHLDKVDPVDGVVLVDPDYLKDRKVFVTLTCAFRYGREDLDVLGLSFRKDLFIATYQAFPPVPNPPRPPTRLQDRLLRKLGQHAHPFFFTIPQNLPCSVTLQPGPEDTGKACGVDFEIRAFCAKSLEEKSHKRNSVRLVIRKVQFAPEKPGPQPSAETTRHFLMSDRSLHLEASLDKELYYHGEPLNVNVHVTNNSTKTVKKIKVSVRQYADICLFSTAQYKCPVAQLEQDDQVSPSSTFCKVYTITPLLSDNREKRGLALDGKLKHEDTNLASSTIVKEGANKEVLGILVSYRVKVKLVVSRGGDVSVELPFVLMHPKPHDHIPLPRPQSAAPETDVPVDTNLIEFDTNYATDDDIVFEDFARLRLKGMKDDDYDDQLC

Row | Compound | % efficacy [%] | EC50 [nM] | Emax [%]
1 | CC1(C(F)(F)F)CCN2CCNCc3cccc1c32 (single isomer, unassigned) [Example 8, 8-Methyl-8-(trifluoromethyl)-2,3,4,6,7,8-hexahydro-1H-[1,4]diazepino [6,7,1-ij]quinoline] | 40 |  | 
2 | CCC1(C)CCN2CCNCc3cccc1c32.O=C(O)C(F)(F)F (single isomer, unassigned) [Example 54, One enantiomer of 8-ethyl-8-methyl-2,3,4,6,7,8-hexahydro-1H-[1,4]diazepino[6,7,1-ij]-quinoline, trifluoroacetic acid] | 24 | 200 to 1000 | 
3 | CCC1(C)CCN2CCNCc3cccc1c32.O=C(O)C(F)(F)F (single isomer, unassigned) [Example 55, Other enantiomer of 8-ethyl-8-methyl-2,3,4,6,7,8-hexahydro-1H-[1,4]diazepino[6,7,1-ij]quinoline, trifluoroacetic acid] | 26 | 200 to 1000 | 
4 | CC1(C)CCN2CCNCc3cccc1c32 [Example 1, 8,8-Dimethyl-2,3,4,6,7,8-hexahydro-1H-[1,4]diazepino[6,7,1-ij]quinoline] |  |  | 71
5 | c1cc2c3c(c1)N1CCC[C@@H]1CN3CCNC2 [Example 16, (R)-5,6,7,9,9a,10,11,12-Octahydro-4H-[1,4]diazepino[1,7,6-de]pyrrolo[1,2-a]quinoxaline (2,2,2-trifluoroacetate)] |  |  | 55
6 | c1cc2c3c(c1)N1CCC[C@H]1CN3CCNC2 [Example 17, (S)-5,6,7,9,9a,10,11,12-Octahydro-4H-[1,4]diazepino[1,7,6-de]pyrrolo[1,2-a]quinoxaline (2,2,2-trifluoroacetate)] |  |  | 84
7 | CC1(C)CCN2CCNCc3cc(Cl)cc1c32 [Example 19, 10-Chloro-8,8-dimethyl-2,3,4,6,7,8-hexahydro-1H-[1,4]diazepino [6,7,1-ij]quinoline (2,2,2-trifluoroacetate)] |  |  | 25
8 | c1cc2c3c(c1)C1(CCC1)CCN3CCNC2 [Example 25, 1′,2′,3′,4′,6′,7′-Hexahydrospiro[cyclobutane-1,8′-[1,4]diazepino [6,7,1-ij]quinoline], hydrochloride] |  |  | 90
9 | Fc1ccc2c3c1C1(CCC1)CCN3CCNC2 [Example 26, 9′-Fluoro-1′,2′,3′,4′,6′,7′-hexahydrospiro[cyclobutane-1,8′-[1,4]diazepino[6,7,1-ij]quinoline], hydrochloride] |  |  | 107
10 | c1cc2c3c(c1)N(C1CCC1)CCN3CCNC2 [Example 33, 1-Cyclobutyl-2,3,5,6,7,8-hexahydro-1H-[1,4]diazepino[1,7,6-de]quinoxaline 2,2,2-trifluoroacetate] |  | 200 to 1000 | 78
11 | c1cc2c3c(c1)N(C1COC1)CCN3CCNC2 [Example 35, 1-(Oxetan-3-yl)-2,3,5,6,7,8-hexahydro-1H-[1,4]diazepino[1,7,6-de]quinoxaline 2,2,2-trifluoroacetate] |  | 20 to 200 | 112
12 | c1cc2c3c(c1)N(C1CCCC1)CCN3CCNC2 [Example 41, 1-Cyclopentyl-2,3,5,6,7,8-hexahydro-1H-[1,4]diazepino[1,7,6-de]quinoxaline] |  | 200 to 1000 | 75
13 | CC1CNCc2cccc3c2N1CCC3(C)C (stereo not drawn) [Example 51, 4,8,8-Trimethyl-2,3,4,6,7,8-hexahydro-1H-[1,4]diazepino[6,7,1-ij]quinoline 2,2,2-trifluoroacetate] |  | 20 to 200 | 102
14 | Cc1ccc2c3c1N1CCCC1CN3CCNC2 (stereo not drawn) [Example 59, 1-Methyl-5,6,7,9,9a,10,11,12-octahydro-4H-[1,4]diazepino[1,7,6-de]pyrrolo[1,2-a]quinoxaline, trifluoroacetic acid] |  | 20 to 200 | 51
15 | Cc1ccc2c3c1CNCCN3CCC21CCC1 [Example 66, 11-Methyl-1,2,3,4,6,7-hexahydrospiro[[1,4]diazepino[6,7,1-ij]quinoline-8,1′-cyclobutane], 2,2,2-trifluoroacetic acid] |  | 200 to 1000 | 53
16 | Cc1ccc2c3c1C1(CCC1)CCN3CCNC2 [Example 67, 9-Methyl-1,2,3,4,6,7-hexahydrospiro[[1,4]diazepino[6,7,1-ij]quinoline-8,1′-cyclobutane], trifluoroacetic acid] |  | < 20 | 116

More lines, now with the values ahead:

Row | % efficacy [%] | EC50 [nM] | Emax [%] | Compound
17 | 61 |  |  | CC1(C(F)(F)F)CCN2CCNCc3cccc1c32 (single isomer, unassigned) [Example 9, 8-Methyl-8-(trifluoromethyl)-2,3,4,6,7,8-hexahydro-1H-[1,4]diazepino [6,7,1-ij]quinoline]
18 | 87 |  |  | CC1CN2CCNCc3cccc(c32)C1(C)C (single isomer, unassigned) [Example 27, Enantiomer of 7,8,8-trimethyl-1,2,3,4,7,8-hexahydro-6H-[1,4]diazepino[6,7,1-ij]quinoline]]
19 | 55 |  |  | CC1CN2CCNCc3cccc(c32)C1(C)C (single isomer, unassigned) [Example 28, Enantiomer of 7,8,8-trimethyl-1,2,3,4,7,8-hexahydro-6H-[1,4]diazepino[6,7,1-ij]quinoline]]
20 |  |  | 63 | c1cc2c3c(c1)C1(CCCC1)CCN3CCNC2 [Example 6, 1,2,3,4,6,7-Hexahydrospiro[[1,4]diazepino [6,7,1-ij]quinoline-8,1′-cyclopentane]]
21 |  |  | 69 | CC1(C)CCN2CCNCc3ccc(F)c1c32 [Example 22, 9-Fluoro-8,8-dimethyl-2,3,4,6,7,8-hexahydro-1H-[1,4]diazepino[6,7,1-ij]quinoline]
22 |  | 200 to 1000 | 31 | c1cc2c3c(c1)N(CC1CC1)CCN3CCNC2 [Example 36, 1-(Cyclopropylmethyl)-2,3,5,6,7,8-hexahydro-1H-[1,4]diazepino[1,7,6-de]quinoxaline]
23 |  | 200 to 1000 | 21 | c1cc2c3c(c1)N(CC1CCCC1)CCN3CCNC2 [Example 37, 1-(Cyclopentylmethyl)-2,3,5,6,7,8-hexahydro-1H-[1,4]diazepino[1,7,6-de]quinoxaline]
24 |  | 20 to 200 | 131 | c1cc2c3c(c1)N(C1CC1)CCN3CCNC2 [Example 40, 1-Cyclopropyl-2,3,5,6,7,8-hexahydro-1H-[1,4]diazepino[1,7,6-de]quinoxaline]
25 |  | < 20 | 163 | CC1CNCc2cccc3c2N1CCN3C1CC1 (stereo not drawn) [Example 42, 1-Cyclopropyl-5-methyl-2,3,5,6,7,8-hexahydro-1H-[1,4]diazepino[1,7,6-de]quinoxaline]
26 |  | 200 to 1000 | 59 | CC1CNCc2cccc3c2N1CCN3C1CCCC1 (stereo not drawn) [Example 43, 1-Cyclopentyl-5-methyl-2,3,5,6,7,8-hexahydro-1H-[1,4]diazepino[1,7,6-de]quinoxaline]
27 |  | 20 to 200 | 55 | c1cc2c3c(c1)N1CCCCCC1CN3CCNC2 (stereo not drawn) [Example 44, 5,6,7,9,9a,10,11,12,13,14-decahydro-4H-azepino[1,2-a][1,4]diazepino[1,7,6-de]quinoxaline]
28 |  | 20 to 200 | 77 | CC1CNCc2cccc3c2N1CC1CCCN31 (stereo not drawn) [Example 45, 7-Methyl-5,6,7,9,9^a,10,11,12-octahydro-4H-[1,4]diazepino[1,7,6-de]pyrrolo[1,2-a]quinoxaline]
29 |  | 200 to 1000 | 71 | CC1CNCc2ccc(F)c3c2N1CC1CCCN31 (stereo not drawn) [Example 46, 1-Fluoro-7-methyl-5,6,7,9,9^a,10,11,12-octahydro-4H-[1,4]diazepino[1,7,6-de]pyrrolo[1,2-a]quinoxaline]
30 |  | 20 to 200 | 59 | c1cc2c3c(c1)C1(CCN3CCNC2)CC1 [Example 47, 1,2,3,4,6,7-Hexahydrospiro[[1,4]diazepino[6,7,1-ij]quinoline-8,1′-cyclopropane]]
31 |  | 20 to 200 | 105 | CC1CNCc2cccc3c2N1CCC31CC1 (stereo not drawn) [Example 48, 4-Methyl-1,2,3,4,6,7-hexahydrospiro[[1,4]diazepino[6,7,1-ij]quinoline-8,1′-cyclopropane]]
32 |  | 200 to 1000 | 78 | CC1(C)CCN2CCNCc3c(F)ccc1c32 [Example 49, 11-Fluoro-8,8-Dimethyl-2,3,4,6,7,8-hexahydro-1H-[1,4]diazepino[6,7,1-ij]quinoline]
33 |  | < 20 | 124 | CC1CNCc2cccc3c2N1CCC31CCC1 (stereo not drawn) [Example 56, 4-Methyl-1,2,3,4,6,7-hexahydrospiro[[1,4]diazepino[6,7,1-ij]quinoline-8,1′-cyclobutane]]
34 |  | 200 to 1000 | 35 | Fc1ccc2c3c1N1CCCC1CN3CCNC2 (stereo not drawn) [Example 57, 1-Fluoro-5,6,7,9,9a,10,11,12-octahydro-4H-[1,4]diazepino[1,7,6-de]pyrrolo[1,2-a]quinoxaline, trifluoroacetic acid]
35 |  | 20 to 200 | 76 | c1cc2c3c(c1)N1CC4CC4C1CN3CCNC2 (stereo not drawn) [Example 68, 4,5,6,7,9,9a,9b,10,10a,11-Decahydrocyclopropa[3,4]pyrrolo[1,2-a][1,4]diazepino[1,7,6-de]quinoxaline]
36 |  | 200 to 1000 | 54 | CCN1CCN2CCNCc3cccc1c32 [Example 69, 1-Ethyl-2,3,5,6,7,8-hexahydro-1H-[1,4]diazepino[1,7,6-de]quinoxaline]
